This is an account of results in publication PMC12681940, “Schisandrin B Targets PXR to Enhance Bile Acid Metabolism and Alleviate ANIT-Induced Cholestatic Liver Injury via Dual Pathways” (International Journal of Biological Sciences, 2026).

The assay concerns the target T1, pregnane X receptor (PXR) (Homo sapiens, UniProt O75469).
T1 construct: gene NR1I2
T1 sequence (O75469 106-434): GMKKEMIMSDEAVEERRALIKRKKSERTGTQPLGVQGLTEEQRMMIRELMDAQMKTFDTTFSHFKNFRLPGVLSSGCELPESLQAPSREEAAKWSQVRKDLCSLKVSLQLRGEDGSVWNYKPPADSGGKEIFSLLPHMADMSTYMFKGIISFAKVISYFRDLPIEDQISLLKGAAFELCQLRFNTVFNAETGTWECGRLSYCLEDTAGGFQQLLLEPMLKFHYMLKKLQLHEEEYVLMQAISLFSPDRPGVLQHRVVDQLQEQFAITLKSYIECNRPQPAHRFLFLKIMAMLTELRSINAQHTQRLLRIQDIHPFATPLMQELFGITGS
Nature of the assay: biochemical.

Take `COc1cc2c(c(OC)c1OC)-c1c(cc3c(c1OC)OCO3)CC(C)C(C)C2` (stereo not shown) [Sin B, Schisandrin B]: the Kd – broadly, the free concentration of one partner at which half of the binding sites on the other are occupied at equilibrium, for simple one-to-one binding – was found to be 6.6 µM.
